Results as given in US20260174875A1 (Novo Nordisk A/S, priority 2023, published 2026).
Read-outs that look alike come from different tables or passages of the source.

Experiments:
Assay type in all cases: cell-based
[1] = target: T1, human amylin receptor (hAMYR3) (Homo sapiens, UniProt O60896+P30988); assay: Amylin receptor assay, method B (CRE-luciferase reporter, BHK cells)
T1 construct: host or cells: BHK cells (Hollex-1 line expressing hCTR(a) and CRE-Luc), further transfected with human RAMP3
T1 sequence (P30988 25-474): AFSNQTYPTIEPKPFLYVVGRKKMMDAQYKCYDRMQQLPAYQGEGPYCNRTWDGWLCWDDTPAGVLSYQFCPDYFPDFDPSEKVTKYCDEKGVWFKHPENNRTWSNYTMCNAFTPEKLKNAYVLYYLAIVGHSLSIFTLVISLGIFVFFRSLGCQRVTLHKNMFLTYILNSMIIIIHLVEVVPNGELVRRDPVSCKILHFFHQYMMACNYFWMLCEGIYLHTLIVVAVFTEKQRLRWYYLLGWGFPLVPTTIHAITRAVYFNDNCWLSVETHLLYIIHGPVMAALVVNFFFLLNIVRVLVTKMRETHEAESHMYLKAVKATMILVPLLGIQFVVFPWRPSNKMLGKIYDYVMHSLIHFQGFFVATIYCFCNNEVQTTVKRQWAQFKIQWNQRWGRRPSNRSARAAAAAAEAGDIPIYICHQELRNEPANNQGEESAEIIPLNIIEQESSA
T1 sequence (O60896 24-148): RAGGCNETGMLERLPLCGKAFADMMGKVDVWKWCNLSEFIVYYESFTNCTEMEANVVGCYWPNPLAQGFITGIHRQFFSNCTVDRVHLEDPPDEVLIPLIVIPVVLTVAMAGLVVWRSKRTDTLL
Experimental: To assess how the activation of the receptors is potentially influenced by the presence of human serum albumin (HSA), the in vitro assays were performed in the absence of HSA and presence of 1% (w/v) HSA.
It is thus possible to measure hAMYR3 activity using a CRE-luciferase reporter gene introduced into Baby Hamster Kidney (BHK) cells co-expressing the hAMYR3.
The cell line was further transfected with human receptor modifying protein 3 (RAMP3) using standard methods.
After centrifugation, the cell pellet was resuspended and diluted to approximately 2.5-4.0×10^6 (2.5E+6 to 4.0E+6) cells/mL in Recovery™ Cell Culture Freezing Medium (Gibco, 12648-010). Cells were aliquoted and stored at −180° C. until use.
The assay buffer consisted of DMEM without phenol red (Gibco, 11880-028) supplemented with 1× GlutaMAX (Gibco, 35050-038), 10 mM HEPES (Gibco, 15630-056) and 1% (w/v) ovalbumin (Sigma, A5503) either with or without 0.1% (v/v) Pluronic F-68 (Gibco, 24040-032) and either with or without HSA (Sigma, A9511).
To perform the assay, hAMYR3 BHK Cre-Luc cells were thawed, washed once in PBS (Gibco 14190-094) and seeded in 40 μL growth medium in a white 384-well culture plate (PerkinElmer/Revvity, 6007688) at a cell density of 4.0×10^3 (4.0E+3) cells/well the day before the experiment. The plate was incubated over night at 37° C. in 5% CO2. […] Serial dilutions were then mixed in a new 96-well plate with equal volume (1:1:1 ratio) of assay buffer and either assay buffer without or with 3% HSA (Sigma, A-9511). Twenty microliters of the solution mix were transferred to the cells which previously were washed once with PBS (Gibco 14190-094). After a short centrifugation, the assay plates were incubated for 3 hours at 37° C. in 5% CO2 and let to equilibrated at room temperature for 10 minutes before the addition of 30 μL steadylite Plus™ PerkinElmer/Revvity, 6066759) per well. Plates were sealed and incubated at room temperature with gentle shaking for 30 minutes while protected from light. Luminescence was detected on a luminescence plate reader e.g., a Synergy 2 (BioTek).

[2] = target: T2, human GLP-1 receptor (hGLP-1R) (Homo sapiens, UniProt P43220); assay: GLP-1 receptor assay, method B (CRE-luciferase reporter, BHK cells, 384-well)
T2 construct: expressed in transfected cells
T2 sequence (P43220 24-463): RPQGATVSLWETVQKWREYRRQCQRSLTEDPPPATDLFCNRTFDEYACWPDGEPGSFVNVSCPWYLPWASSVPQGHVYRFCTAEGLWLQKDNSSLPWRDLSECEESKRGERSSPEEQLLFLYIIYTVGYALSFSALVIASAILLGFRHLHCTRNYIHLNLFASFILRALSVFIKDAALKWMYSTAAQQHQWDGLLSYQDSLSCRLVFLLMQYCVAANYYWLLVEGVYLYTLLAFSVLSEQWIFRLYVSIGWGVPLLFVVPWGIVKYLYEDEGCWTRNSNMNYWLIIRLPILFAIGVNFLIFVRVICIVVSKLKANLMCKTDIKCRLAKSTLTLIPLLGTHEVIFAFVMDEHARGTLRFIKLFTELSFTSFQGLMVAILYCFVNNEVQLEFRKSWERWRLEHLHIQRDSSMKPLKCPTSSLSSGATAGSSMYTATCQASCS

[3] = target: T3, human GIP receptor (hGIPR) (Homo sapiens, UniProt P48546); assay: GIP receptor assay, method B (CRE-luciferase reporter, BHK cells, 384-well)
T3 construct: expressed in transfected cells
T3 sequence (P48546 22-466): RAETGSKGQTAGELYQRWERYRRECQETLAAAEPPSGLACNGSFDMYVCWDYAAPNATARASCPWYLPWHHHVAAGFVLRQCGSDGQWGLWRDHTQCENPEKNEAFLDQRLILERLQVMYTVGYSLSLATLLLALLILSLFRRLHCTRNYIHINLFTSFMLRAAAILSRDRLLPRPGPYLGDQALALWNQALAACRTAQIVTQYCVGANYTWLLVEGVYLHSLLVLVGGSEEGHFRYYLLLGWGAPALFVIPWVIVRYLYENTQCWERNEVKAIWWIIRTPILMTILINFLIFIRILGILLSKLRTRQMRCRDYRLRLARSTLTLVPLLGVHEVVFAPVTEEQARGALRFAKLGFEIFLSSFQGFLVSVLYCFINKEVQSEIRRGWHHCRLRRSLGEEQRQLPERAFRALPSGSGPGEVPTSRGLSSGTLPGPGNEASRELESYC
Description: Activation of the human GIP receptor leads to increased intra-cellular concentrations of cyclic AMP (cAMP) and the consequent transcription activation from promoters containing multiple copies of the cAMP response element (CRE). It is thus possible to measure GIP receptor activity using a CRE-luciferase reporter gene introduced into Baby Hamster Kidney (BHK) cells co-expressing the human GIP receptor.
Cells at about 80-90% confluency were washed once with PBS (Gibco 14190-094) and detached from the cell flasks with Versene (Gibco, 15040-066). After centrifugation, the cells were counted, resuspended and diluted to approximately 1.5-3.0×10^6 (1.5E+6 to 3.0E+6) cells/mL in Recovery Cell Culture Freezing Medium (Gibco, 12648-010) and stored at −180° C. in suitable aliquots until use.
The assay buffer consisted of DMEM without phenol red (Gibco, 11880-028) supplemented with 1× GlutaMAX (Gibco, 35050-038), 10 mM HEPES (Gibco, 15630-056), 1% (w/v) ovalbumin (Sigma, A5503) and 0.1% (v/v) Pluronic F-68 (Gibco, 24040-032) either with HSA or without HSA (Sigma, A9511).
Serial dilutions were transferred to a 384-well assay plate (PerkinElmer/Revvity, 6007688) and mixed with an equal volume (10 μL) of assay buffer without or with 3% HSA (Sigma, A-9511). Frozen stocks of hGIPR BHK Cre-Luc cells were thawed in a 37° C. water bath, washed once in PBS (Gibco 14190-094), diluted to 1.5×10^5 (1.5E+5) cells/mL in assay buffer (without HSA) and added (10 μL) to each well of the 384-well assay plate. After a short centrifugation, the assay plates were incubated for 3 hours at 37° C. in 5% CO2 and let to equilibrated at room temperature for 10 minutes before the addition of 30 μL steadylite Plus™ (PerkinElmer/Revvity, 6066759) per well. Plates were sealed and incubated at room temperature with gentle shaking for 30 minutes while protected from light. Luminescence was detected on a luminescence plate reader e.g. a Synergy 2 (BioTek).

[4] = method B, absence of HSA, read-out: hAMYR3 Potency, no HSA, EC50
[5] = method B, absence of HSA, read-out: hGLP-1R Potency, no HSA, EC50
[6] = method B, absence of HSA, read-out: hGIPR Potency, no HSA, EC50
[7] = hAMYR3 Potency, 1% HSA, EC50, methods B, in the presence of 1% HSA
[8] = hGLP-1R Potency, 1% HSA, EC50, methods B, in the presence of 1% HSA
[9] = hGIPR Potency, 1% HSA, EC50, methods B, in the presence of 1% HSA

EC50 [1, 4] [nM] | EC50 [2, 5] [nM] | EC50 [3, 6] [nM] | EC50 [1, 7] [nM] | EC50 [2, 8] [nM] | EC50 [3, 9] [nM] | Compound
0.00846 | 0.0288 | 0.00325 |  |  |  | CC[C@H](C)[C@H](NC(=O)[C@H](CCC(=O)O)NC(=O)[C@H](CCC(=O)O)NC(=O)[C@H](CC(C)C)NC(=O)[C@H](CC(C)C)NC(=O)[C@@H](NC(=O)[C@H](CO)NC(=O)[C@H](Cc1ccc(O)cc1)NC(=O)[C@H](CC(=O)O)NC(=O)[C@H](CO)NC(=O)[C@@H](NC(=O)[C@H](Cc1ccccc1)NC(=O)[C@@H](NC(=O)CNC(=O)[C@H](CCC(=O)O)NC(=O)C(C)(C)NC(=O)[C@@H](N)Cc1ccc(O)cc1)[C@@H](C)O)[C@@H](C)O)[C@@H](C)CC)C(=O)N[C@@H](C)C(=O)N[C@@H](C)C(=O)N[C@@H](CCCNC(=N)N)C(=O)N[C@@H](CCC(=O)O)C(=O)N[C@@H](Cc1ccccc1)C(=O)N[C@H](C(=O)N[C@@H](CCC(=O)O)C(=O)N[C@@H](Cc1c[nH]c2ccccc12)C(=O)N[C@@H](CC(C)C)C(=O)N[C@@H](CC(C)C)C(=O)N[C@@H](C)C(=O)NCC(=O)NCC(=O)N1CCC[C@H]1C(=O)N[C@@H](CO)C(=O)N[C@@H](CO)C(=O)N[C@@H](CCC(=O)O)C(=O)N[C@@H](C)C(=O)NCC(=O)N[C@@H](C)C(=O)N[C@@H](CO)C(=O)N[C@@H](CCC(N)=O)C(=O)N[C@@H](CC(C)C)C(=O)N[C@@H](CO)C(=O)N[C@H](C(=O)N[C@@H](C)C(=O)N[C@@H](CCC(N)=O)C(=O)N[C@H](C(=O)N[C@@H](CCC(N)=O)C(=O)N[C@@H](CCCNC(=N)N)C(=O)N[C@@H](CC(C)C)C(=O)N[C@@H](CO)C(=O)N[C@@H](C)C(=O)N[C@@H](CCC(=O)O)C(=O)N[C@@H](CC(C)C)C(=O)N[C@@H](Cc1c[nH]cn1)C(=O)N[C@@H](CCCCNC(=O)COCCOCCNC(=O)COCCOCCNC(=O)CC[C@H](NC(=O)CCCCCCCCCCCCCCCCCCC(=O)O)C(=O)O)C(=O)N[C@@H](CC(C)C)C(=O)N[C@@H](C)C(=O)N[C@H](C(=O)N[C@@H](CC(C)C)C(=O)N1CCC[C@H]1C(=O)N[C@@H](CCCNC(=N)N)C(=O)N[C@H](C(=O)N[C@@H](CCC(=O)O)C(=O)N[C@H](C(=O)NCC(=O)N[C@@H](CO)C(=O)NCC(=O)N[C@@H](CO)C(=O)N1CCC[C@H]1C(N)=O)[C@@H](C)O)[C@@H](C)O)[C@@H](C)O)[C@@H](C)O)[C@@H](C)O)[C@@H](C)CC [Compound 181]
0.00967 | 0.0277 | 0.00399 | 0.95 | 0.0726 | 0.0139 | CC[C@H](C)[C@H](NC(=O)[C@H](CCC(=O)O)NC(=O)[C@H](CCC(=O)O)NC(=O)[C@H](CC(C)C)NC(=O)[C@H](CC(C)C)NC(=O)[C@@H](NC(=O)[C@H](CO)NC(=O)[C@H](Cc1ccc(O)cc1)NC(=O)[C@H](CC(=O)O)NC(=O)[C@H](CO)NC(=O)[C@@H](NC(=O)[C@H](Cc1ccccc1)NC(=O)[C@@H](NC(=O)CNC(=O)[C@H](CCC(=O)O)NC(=O)C(C)(C)NC(=O)[C@@H](N)Cc1ccc(O)cc1)[C@@H](C)O)[C@@H](C)O)[C@@H](C)CC)C(=O)N[C@@H](C)C(=O)N[C@@H](C)C(=O)N[C@@H](CCCNC(=N)N)C(=O)N[C@@H](CCC(=O)O)C(=O)N[C@@H](Cc1ccccc1)C(=O)N[C@H](C(=O)N[C@@H](CCC(=O)O)C(=O)N[C@@H](Cc1c[nH]c2ccccc12)C(=O)N[C@@H](CC(C)C)C(=O)N[C@@H](CC(C)C)C(=O)N[C@@H](C)C(=O)NCC(=O)NCC(=O)N1CCC[C@H]1C(=O)N[C@@H](CO)C(=O)N[C@@H](CO)C(=O)NCC(=O)N[C@@H](C)C(=O)NCC(=O)N[C@@H](CCC(N)=O)C(=O)N[C@@H](C)C(=O)N1CCC[C@H]1C(=O)N[C@@H](CCC(=O)O)C(=O)N[C@@H](CCC(N)=O)C(=O)N[C@@H](C)C(=O)N1CCC[C@H]1C(=O)NCC(=O)N[C@@H](C)C(=O)N[C@@H](CO)C(=O)N[C@@H](Cc1c[nH]cn1)C(=O)N[C@@H](CC(C)C)C(=O)N[C@@H](CO)C(=O)N[C@H](C(=O)N[C@@H](C)C(=O)N[C@@H](CCC(N)=O)C(=O)N[C@H](C(=O)N[C@@H](CCC(N)=O)C(=O)N[C@@H](CCCNC(=N)N)C(=O)N[C@@H](CC(C)C)C(=O)N[C@@H](CO)C(=O)N[C@@H](C)C(=O)N[C@@H](CCC(=O)O)C(=O)N[C@@H](CC(C)C)C(=O)N[C@@H](Cc1c[nH]cn1)C(=O)N[C@@H](CCCCNC(=O)COCCOCCNC(=O)COCCOCCNC(=O)CC[C@H](NC(=O)CCCCCCCCCCCCCCCCCCC(=O)O)C(=O)O)C(=O)N[C@@H](CC(C)C)C(=O)N[C@@H](C)C(=O)N[C@H](C(=O)N[C@@H](CC(C)C)C(=O)N1CCC[C@H]1C(=O)N[C@@H](CCCNC(=N)N)C(=O)N[C@H](C(=O)N[C@@H](CCC(=O)O)C(=O)N[C@H](C(=O)NCC(=O)N[C@@H](CO)C(=O)NCC(=O)N[C@@H](CO)C(=O)N1CCC[C@H]1C(N)=O)[C@@H](C)O)[C@@H](C)O)[C@@H](C)O)[C@@H](C)O)[C@@H](C)O)[C@@H](C)CC [Compound 151]
0.00631 |  | 0.0029 | 0.774 | 0.129 | 0.02 | CC[C@H](C)[C@H](NC(=O)[C@H](CCC(=O)O)NC(=O)[C@H](CCC(=O)O)NC(=O)[C@H](CC(C)C)NC(=O)[C@H](CC(C)C)NC(=O)[C@@H](NC(=O)[C@H](CO)NC(=O)[C@H](Cc1ccc(O)cc1)NC(=O)[C@H](CC(=O)O)NC(=O)[C@H](CO)NC(=O)[C@@H](NC(=O)[C@H](Cc1ccccc1)NC(=O)[C@@H](NC(=O)CNC(=O)[C@H](CCC(=O)O)NC(=O)C(C)(C)NC(=O)[C@@H](N)Cc1ccc(O)cc1)[C@@H](C)O)[C@@H](C)O)[C@@H](C)CC)C(=O)N[C@@H](C)C(=O)N[C@@H](C)C(=O)N[C@@H](CCCNC(=N)N)C(=O)N[C@@H](CCC(=O)O)C(=O)N[C@@H](Cc1ccccc1)C(=O)N[C@H](C(=O)N[C@@H](CCC(=O)O)C(=O)N[C@@H](Cc1c[nH]c2ccccc12)C(=O)N[C@@H](CC(C)C)C(=O)N[C@@H](CC(C)C)C(=O)N[C@@H](C)C(=O)NCC(=O)NCC(=O)N1CCC[C@H]1C(=O)N[C@@H](CO)C(=O)N[C@@H](CO)C(=O)NCC(=O)N[C@@H](C)C(=O)NCC(=O)N[C@@H](CCC(N)=O)C(=O)N[C@@H](C)C(=O)N1CCC[C@H]1C(=O)NCC(=O)N[C@@H](CCC(N)=O)C(=O)N[C@@H](C)C(=O)N1CCC[C@H]1C(=O)NCC(=O)N[C@@H](C)C(=O)N[C@@H](CO)C(=O)N[C@@H](Cc1c[nH]cn1)C(=O)N[C@@H](CC(C)C)C(=O)N[C@@H](CO)C(=O)N[C@H](C(=O)N[C@@H](C)C(=O)N[C@@H](CCC(N)=O)C(=O)N[C@H](C(=O)N[C@@H](CCC(N)=O)C(=O)N[C@@H](CCCNC(=N)N)C(=O)N[C@@H](CC(C)C)C(=O)N[C@@H](CO)C(=O)N[C@@H](C)C(=O)N[C@@H](CCC(=O)O)C(=O)N[C@@H](CC(C)C)C(=O)N[C@@H](Cc1c[nH]cn1)C(=O)N[C@@H](CCCCNC(=O)COCCOCCNC(=O)COCCOCCNC(=O)CC[C@H](NC(=O)CCCCCCCCCCCCCCCCCCC(=O)O)C(=O)O)C(=O)N[C@@H](CC(C)C)C(=O)N[C@@H](C)C(=O)N[C@H](C(=O)N[C@@H](CC(C)C)C(=O)N1CCC[C@H]1C(=O)N[C@@H](CCCNC(=N)N)C(=O)N[C@H](C(=O)N[C@@H](CCC(=O)O)C(=O)N[C@H](C(=O)NCC(=O)N[C@@H](CO)C(=O)NCC(=O)N[C@@H](CO)C(=O)N1CCC[C@H]1C(N)=O)[C@@H](C)O)[C@@H](C)O)[C@@H](C)O)[C@@H](C)O)[C@@H](C)O)[C@@H](C)CC [Compound 120]
